The text below walks through data of patent US9469615B2, “Quinoxalines and AZA-quinoxalines as CRTH2 receptor modulators” (Merck Sharp & Dohme Corp., priority 2010, dated 2016).

pKi: −log10 of the molar value.

The experiment concerns the target T1, hCRTH2 (Homo sapiens, UniProt Q9Y5Y4).
T1 construct: expressed in transfected cells; host or cells: HEK (human embryonic kidney) cells expressing hCRTH2; membrane preparation
T1 sequence (Q9Y5Y4 1-395): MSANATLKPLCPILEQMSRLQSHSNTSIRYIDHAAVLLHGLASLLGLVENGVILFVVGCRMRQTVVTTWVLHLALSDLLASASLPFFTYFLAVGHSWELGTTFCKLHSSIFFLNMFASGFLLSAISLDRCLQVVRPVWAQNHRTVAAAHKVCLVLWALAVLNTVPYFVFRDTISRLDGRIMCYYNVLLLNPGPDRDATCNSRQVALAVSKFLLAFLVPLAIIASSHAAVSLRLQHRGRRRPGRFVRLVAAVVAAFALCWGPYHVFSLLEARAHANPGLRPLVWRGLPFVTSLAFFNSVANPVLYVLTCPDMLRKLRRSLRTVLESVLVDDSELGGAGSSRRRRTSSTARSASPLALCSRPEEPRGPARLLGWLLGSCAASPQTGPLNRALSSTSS
The experiment can be described thus: Radioligand binding assay ([3H]PGD2 competition, HEK-hCRTH2 membranes). The conditions noted are these: [3H]PGD2 binding. In outline:
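Competition against 3.0 nM [3H]PGD2 was run for 60 min at room temperature in pH 7.4 Tris-HCl buffer with EDTA, 2 mM MnCl2 and 1% DMSO, using 8-20 μg HEK-hCRTH2 membrane protein. 10 μM PGD2 set non-specific binding; filter-bound counts were read by scintillation.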

As usually defined, the pKi is the negative decadic logarithm of the Ki, by convention in mol/L. Read a low pKi as a high Ki.

For the compound `COCCN1CCN(C(=O)c2ccc3nc(-c4ccccc4)c(CCCCC(=O)O)nc3c2)CC1` [15M, 5-(7-{[4-(2-methoxy-ethyl)piperazin-1-yl]-carbonyl}-3-phenyl-quinoxalin-2-yl) pentanoic acid], for the setting “rated A-E (Table A)”, the negative logarithm of the Ki (pKi) is 6.70 to 7.70.

Compound `COc1ccc(C2CCN(C(=O)c3ccc4nc(-c5ccccc5)c(CCCCC(=O)O)nc4c3)C2)cc1` (stereo not shown) [15N, 5-(7-{[3-(4-methoxy-phenyl)pyrrolidin-1-yl]-carbonyl}-3-phenyl-quinoxalin-2-yl) pentanoic acid] gave a pKi (rated A-E (Table A)) of 7.70 to 8.68.

For `O=C(O)CCCCc1nc2cc(C(=O)N3CCC(c4cccc(Cl)c4)C3)ccc2nc1-c1ccccc1` (stereo not shown) [15P, 5-(7-{[3-(3-chloro-phenyl)pyrrolidin-1-yl]-carbonyl}-3-phenyl-quinoxalin-2-yl) pentanoic acid], for the setting “rated A-E (Table A)”, the pKi is 8.70 to 10.00.

For the compound `O=C(O)CCCCc1nc2cc(C(=O)NC(c3ccc(F)cc3)C(F)(F)F)ccc2nc1-c1ccccc1` (stereo not shown) [15Q, 5-(3-phenyl-7-{[2,2,2-trifluoro-1-(4-fluoro-phenyl)ethyl]carbamoyl}-quinoxalin-2-yl)pentanoic acid], the pKi (rated A-E (Table A)) was 8.70 to 10.00.

Where the note is “rated A-E (Table A)”, `O=C(O)CCCCc1nc2cc(C(=O)N3CCC(Cc4ccccc4)C3)ccc2nc1-c1ccccc1` (stereo not shown) [15R, 5-{7-[(3-benzylpyrrolidin-1-yl)carbonyl]-3-phenyl-quinoxalin-2-yl}pentanoic acid] had a pKi of 8.70 to 10.00.

The compound `O=C(O)CCCCc1nc2cc(C(=O)N3CCC(c4ccc(F)cc4)C3)ccc2nc1-c1ccccc1` (stereo not shown) [15S, 5-(7-{[3-(4-fluorophenyl)-pyrrolidin-1-yl]carbonyl}-3-phenylquinoxalin-2-yl)-pentanoic acid] gave a negative logarithm of the Ki (pKi) (rated A-E (Table A)) of 8.70 to 10.00.

`O=C(O)CCCCc1nc2cc(C(=O)NCc3ccc(Cl)cc3)ccc2nc1-c1ccccc1` [15T, 5-{7-[(4-chlorobenzyl)-carbamoyl]-3-phenyl-quinoxalin-2-yl} pentanoic acid] showed a pKi (rated A-E (Table A)) of 8.70 to 10.00.

Compound `O=C(O)CCCCc1nc2cc(C(=O)NCc3cccc(Cl)c3)ccc2nc1-c1ccccc1` [15U, 5-{7-[(3-chlorobenzyl)carbamoyl]-3-phenylquinoxalin-2-yl}pentanoic acid] showed a negative logarithm of the Ki (pKi) (rated A-E (Table A)) of 7.70 to 8.68.

Under “rated A-E (Table A)”, `O=C(O)CCCCc1nc2cc(C(=O)NCc3ccccc3Cl)ccc2nc1-c1ccccc1` [15V, 5-{7-[(2-chlorobenzyl)carbamoyl]-3-phenylquinoxalin-2-yl}pentanoic acid] gave a pKi of 8.70 to 10.00.

`CC(C)(NC(=O)c1ccc2nc(-c3ccccc3)c(CCCCC(=O)O)nc2c1)c1ccccc1` [15X, 5-{7-[(1-methyl-1-phenylethyl)carbamoyl]-3-phenylquinoxalin-2-yl}pentanoic acid]: the negative-log Ki (pKi) (rated A-E (Table A)) is 8.70 to 10.00.

In turn, `O=C(O)CCCCc1nc2cc(C(=O)N3CCCC(c4ccccc4)C3)ccc2nc1-c1ccccc1` (stereo not shown) [15Y, 5-{3-phenyl-7-[(3-phenylpiperidin-1-yl)carbonyl]quinoxalin-2-yl}pentanoic acid] had a pKi (rated A-E (Table A)) of 8.70 to 10.00.

Consider `O=C(O)CCCCc1nc2cc(C(=O)NCc3ccccc3)ccc2nc1-c1ccccc1` [15Z, 5-[7-(benzylcarbamoyl)-3-phenylquinoxalin-2-yl]pentanoic acid], for which the negative-log Ki (pKi) (rated A-E (Table A)) was 8.70 to 10.00.

As for `O=C(O)CCCCc1nc2cc(C(=O)N3CC4(CCNCC4)C3)ccc2nc1-c1ccccc1` [15i, 5-[7-(2,7-diazaspiro-[3.5]non-2-ylcarbonyl)-3-phenylquinoxalin-2-yl]pentanoic acid], the pKi by setting is: (rated A-E (Table A)) 6.15 to 6.70; (values in text) 6.55.

Take `O=C(O)CCCCc1nc2cc(C(=O)N3CCN(S(=O)(=O)c4ccccc4)CC3)ccc2nc1-c1ccccc1` [15o, 5-(3-phenyl-7-{[4-(phenylsulfonyl)piperazin-1-yl]carbonyl}quinoxalin-2-yl)pentanoic acid]: the pKi runs as follows: (rated A-E (Table A)) 7.70 to 8.68; (values in text) 7.78.

Consider `O=C(O)CCCCc1nc2cc(C(=O)NCc3cccc(C(F)(F)F)c3)ccc2nc1-c1ccc(Cl)cc1` [16AB, 3-(4-chlorophenyl)-7-[[[[3-(trifluoromethyl)phenyl]methyl]amino]carbonyl]-2-quinoxalinepentanoic acid], for which the pKi (rated A-E (Table A)) was 8.70 to 10.00.

The compound `O=C(O)CCCCc1nc2cc(C(=O)NCc3cccc(OC(F)(F)F)c3)ccc2nc1-c1ccc(Cl)cc1` [16AC, 3-(4-chlorophenyl)-7-[[[[3-(trifluoromethoxy)phenyl]methyl]amino]carbonyl]-2-quinoxalinepentanoic acid] gave a pKi (rated A-E (Table A)) of 8.70 to 10.00.

Consider `C[C@@H](NC(=O)c1ccc2nc(-c3ccc(Cl)cc3)c(CCCCC(=O)O)nc2c1)c1ccc(Cl)cc1` [16AD, 3-(4-chlorophenyl)-7-[[[(R)-(4-chlorophenyl)ethyl]amino]carbonyl]-2-quinoxalinepentanoic acid], for which the negative logarithm of the Ki (pKi) (rated A-E (Table A)) was 8.70 to 10.00.

Turning to `C[C@H](NC(=O)c1ccc2nc(-c3ccc(Cl)cc3)c(CCCCC(=O)O)nc2c1)c1ccc(Cl)cc1` [16AE, 3-(4-chlorophenyl)-7-[[[1(S)-(4-chlorophenyl)ethyl]amino]carbonyl]-2-quinoxalinepentanoic acid], the pKi (rated A-E (Table A)) is 8.70 to 10.00.

Compound `O=C(O)CCCCc1nc2cc(C(=O)N3CC(c4ccccc4)C3)ccc2nc1-c1ccc(Cl)cc1` [16AF, 3-(4-chlorophenyl)-7-[(3-phenyl-1-azetidinyl)carbonyl]-2-quinoxalinepentanoic acid] had a negative logarithm of the Ki (pKi) (rated A-E (Table A)) of 8.70 to 10.00.

The compound `O=C(O)CCCCc1nc2cc(C(=O)N3CCN(c4ccccc4)CC3)ccc2nc1-c1ccc(Cl)cc1` [16AG, 3-(4-chlorophenyl)-7-[(4-phenyl-1-piperazinyl)carbonyl]-2-quinoxalinepentanoic acid] gave a pKi (rated A-E (Table A)) of 8.70 to 10.00 and a pKi (values in text) of 8.92.

On to `O=C(O)CCCCc1nc2cc(C(=O)N[C@H](c3ccccc3)C(F)(F)F)ccc2nc1-c1ccc(Cl)cc1` [16AH, 3-(4-chlorophenyl)-7-[[(2,2,2-trifluoro-1(R)-phenylethyl)amino]carbonyl]-2-quinoxalinepentanoic acid], for which the pKi (rated A-E (Table A)) was 7.70 to 8.68.

As to `O=C(O)CCCCc1nc2cc(C(=O)N3CC=C(c4ccccc4)CC3)ccc2nc1-c1ccc(Cl)cc1` [16AJ, 3-(4-chlorophenyl)-7-[(3,6-dihydro-4-phenyl-1(2H)-pyridinyl)carbonyl]-2-quinoxalinepentanoic acid], the negative logarithm of the Ki (pKi) (rated A-E (Table A)) was 8.70 to 10.00.

`N#CC1(c2ccccc2)CCN(C(=O)c2ccc3nc(-c4ccc(Cl)cc4)c(CCCCC(=O)O)nc3c2)CC1` [16AK, 3-(4-chlorophenyl)-7-[(4-cyano-4-phenyl-1-piperidinyl)carbonyl]-2-quinoxalinepentanoic acid] gave a pKi (rated A-E (Table A)) of 8.70 to 10.00.

`C[C@@H](NC(=O)c1ccc2nc(-c3ccc(Cl)cc3)c(CCCCC(=O)O)nc2c1)c1ccccc1` [16AL, 3-(4-chlorophenyl)-7-[[(1(R)-phenylethyl)amino]carbonyl]-2-quinoxalinepentanoic acid] showed a pKi (rated A-E (Table A)) of 8.70 to 10.00.

Consider `C[C@H](NC(=O)c1ccc2nc(-c3ccc(Cl)cc3)c(CCCCC(=O)O)nc2c1)c1ccccc1` [16AM, 3-(4-chlorophenyl)-7-[[(1-(S)-phenylethyl)amino]carbonyl]-2-quinoxalinepentanoic acid], for which the negative-log Ki (pKi) (rated A-E (Table A)) was 8.70 to 10.00.

For the compound `O=C(O)CCCCc1nc2cc(C(=O)N[C@H]3CCCc4ccccc43)ccc2nc1-c1ccc(Cl)cc1` [16AN, 3-(4-chlorophenyl)-7-[[(1,2,3,4-tetrahydro-1(S)-naphthalenyl)amino]carbonyl]-2-quinoxalinepentanoic acid], the negative-log Ki (pKi) (rated A-E (Table A)) is 8.70 to 10.00.

As for `O=C(O)CCCCc1nc2cc(C(=O)N[C@H]3CCc4ccccc43)ccc2nc1-c1ccc(Cl)cc1` [16AP, 3-(4-chlorophenyl)-7-[[(2,3-dihydro-1H-inden-1(S)-yl)amino]carbonyl]-2-quinoxalinepentanoic acid], the pKi (rated A-E (Table A)) is 8.70 to 10.00.

`Cc1ccc(CNC(=O)c2ccc3nc(-c4ccc(Cl)cc4)c(CCCCC(=O)O)nc3c2)cc1` [16AQ, 3-(4-chlorophenyl)-7-[[[(4-methylphenyl)methyl]amino]carbonyl]-2-quinoxalinepentanoic acid] had a pKi (rated A-E (Table A)) of 8.70 to 10.00.

Under “rated A-E (Table A)”, `O=C(O)CCCCc1nc2cc(C(=O)N[C@@H](CCO)c3ccccc3)ccc2nc1-c1ccc(Cl)cc1` [16AR, 3-(4-chlorophenyl)-7-[[(3-hydroxy-1(S)-phenylpropyl)amino]carbonyl]-2-quinoxalinepentanoic acid] showed a negative logarithm of the Ki (pKi) of 7.70 to 8.68.

With `O=C(O)CCCCc1nc2cc(C(=O)NC3Cc4ccccc4C3)ccc2nc1-c1ccc(Cl)cc1` [16AS, 3-(4-ch1orophenyl)-7-[[(2,3-dihydro-1H-inden-2-yl)amino]carbonyl]-2-quinoxalinepentanoic acid], the pKi (rated A-E (Table A)) is 8.70 to 10.00.

For the compound `O=C(O)CCCCc1nc2cc(C(=O)NC3CCCc4ccccc43)ccc2nc1-c1ccc(Cl)cc1` (stereo not shown) [16Ai, 3-(4-chlorophenyl)-7-[[(1,2,3,4-tetrahydro-1-naphthalenyl)amino]carbonyl]-2-quinoxalinepentanoic acid], the pKi (rated A-E (Table A)) was 8.70 to 10.00.

As for `O=C(O)CCCCc1nc2cc(C(=O)N[C@@H]3CCc4ccccc43)ccc2nc1-c1ccc(Cl)cc1` [16Ao, 3-(4-chlorophenyl)-7-[[(2,3-dihydro-1H-inden-1(R)-yl)amino]carbonyl]-2-quinoxalinepentanoic acid], the pKi is 8.70 to 10.00 (rated A-E (Table A)) and 9.40 (values in text).

As to `O=C(O)CCCCc1nc2cc(C(=O)NCc3cccc(Cl)c3)ccc2nc1-c1ccc(Cl)cc1` [16F, 3-(4-chlorophenyl)-7-[[[(3-chlorophenyl)methyl]amino]carbonyl]-2-quinoxalinepentanoic acid], where the note is “rated A-E (Table A)”, the pKi was 8.70 to 10.00.
